Results from patent US20250295609A1, “COMPOUND HAVING ANTI-ANDROGEN RECEPTOR ACTIVITY, AND USE THEREOF” (NANJING MINOVA PHARMACEUTICAL CO., LTD., priority 2022, published 2025).
Structures can show the parent of a compound that is named as a salt. Where two headings read alike, the source gives them in different places.

Key:
[1] = test system: human prostate cancer cells LNCaP; assay: Cell viability inhibition assay (CTG) on LNCaP cells in presence of DHT; format: cell-based; conditions: read-out: Inhibitory activity against human prostate cancer cell LNCaP IC50
Excerpt: Human prostate cancer cells LNCaP and human prostate cancer cells 22Rvl are present in patients with prostate cancer. An androgen, DHT, is able to promote the growth of human prostate cancer cells LNCaP. Using the cell model described above was intended to study the inhibitory effects of the compounds of the present disclosure on the growth of human prostate cancer cells (human prostate cancer cells LNCaP and human prostate cancer cells 22Rvl) in the presence or absence of DHT.
The medium in the culture dish was discarded, and 5 mL of trypsin was added for digestion for about 3 mins. The digestion was stopped by adding 10 mL of a fresh medium. The cells were fully pipetted and transferred to a 15 mL centrifuge tube, and the cells were collected by centrifugation at 1000 rpm for 5 mins. The cells collected by centrifugation were resuspended in 11 mL of a fresh medium. 1 mL of the cells was taken and counted, and the cell viability was detected. The cell density was adjusted to 1×10^4 cells/mL by adding an appropriate amount of the medium. The cells were seeded in a 96-well plate at 200 µL/well, and the plate was incubated overnight in a cell incubator.
After the cells were attached to the well, for the human prostate cancer cells LNCaP group, test compounds (0.1 μM, 0.3 μM, 1 μM, 3 μM, 10 μM, and 30 μM) and DHT (1 nM, inducing the expression of AR) were added to the 96-well plate, and the plate was incubated for another 5 days; for the human prostate cancer cells 22Rvl group, test compounds (0.1 μM, 0.3 μM, 1 μM, 3 μM, 10 μM, and 30 μM) were added to the 96-well plate, and the plate was incubated for another 5 days. […] The 96-well plate was equilibrated at room temperature for 30 mins. The cell viability was detected by using a CTG method. Before detection, CellTiter-Glo® Buffer and a substrate thereof (collectively called CTG reagent) were thawed and equilibrated to room temperature. Then, […] of Buffer was gently mixed with the substrate to form a homogeneous solution. The homogeneous solution was added to the 96-well plate at 100 µL/well, and the 96-well plate was incubated on a shaker for 15 mins. The fluorescence value in each well was then detected. The detection method for the fluorescence value in each well was as follows: after adding the CTG reagent, luminescence detection (integration time: 500 ms) was performed by using a correspondingly equipped multi-mode microplate reader (M200Pro, TECAN, Switzerland) according to the supplier's manual to quantify the effect of the inhibitor on the cell viability. For data analysis, an assay background value was subtracted from all data points, which was determined in wells containing the medium but no cells. Data were processed using the XLfit software (XLfit 5.2., IDBS, UK), and IC50 values of the test compounds were calculated.

[2] = target: T1, AR protein expression in human prostate cancer cells LNCaP (Homo sapiens, UniProt P10275, T878A); assay: Reduction of AR protein expression in LNCaP cells (Western blot, with DHT); format: cell-based; conditions: 1 nM DHT; for anti-AR activity (in words): Western blot; for AR reduction percentage: 2.5 μmol/L compound; for AR reduction percentage / Relative potency (anti-AR activity): 48 h; for Relative potency (anti-AR activity): concentration basis not given
T1 sequence (P10275 1-920 T878A): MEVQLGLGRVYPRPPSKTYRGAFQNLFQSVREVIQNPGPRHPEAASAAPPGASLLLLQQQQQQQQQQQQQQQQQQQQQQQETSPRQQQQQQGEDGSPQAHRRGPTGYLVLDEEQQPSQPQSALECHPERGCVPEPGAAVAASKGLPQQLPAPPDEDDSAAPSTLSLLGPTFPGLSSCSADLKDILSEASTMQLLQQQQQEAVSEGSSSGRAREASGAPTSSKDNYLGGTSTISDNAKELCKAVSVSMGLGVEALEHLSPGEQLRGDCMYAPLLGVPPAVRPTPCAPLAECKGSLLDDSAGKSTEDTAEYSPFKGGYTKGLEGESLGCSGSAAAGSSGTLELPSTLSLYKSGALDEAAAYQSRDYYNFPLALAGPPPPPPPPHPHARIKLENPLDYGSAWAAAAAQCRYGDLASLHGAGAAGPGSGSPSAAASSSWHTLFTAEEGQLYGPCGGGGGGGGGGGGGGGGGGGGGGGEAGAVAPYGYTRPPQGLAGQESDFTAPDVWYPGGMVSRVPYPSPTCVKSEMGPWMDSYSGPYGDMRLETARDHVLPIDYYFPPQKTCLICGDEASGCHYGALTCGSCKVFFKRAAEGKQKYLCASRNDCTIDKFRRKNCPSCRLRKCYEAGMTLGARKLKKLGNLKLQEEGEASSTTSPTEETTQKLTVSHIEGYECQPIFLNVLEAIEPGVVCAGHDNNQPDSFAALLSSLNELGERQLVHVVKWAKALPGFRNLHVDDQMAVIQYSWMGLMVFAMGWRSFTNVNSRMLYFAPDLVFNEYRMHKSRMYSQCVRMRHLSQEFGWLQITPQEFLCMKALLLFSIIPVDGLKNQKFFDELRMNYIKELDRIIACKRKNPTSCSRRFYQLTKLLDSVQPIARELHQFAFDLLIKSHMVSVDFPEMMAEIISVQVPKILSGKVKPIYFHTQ
Method: The term “anti-AR activity” refers to the ability of the compound of the present disclosure to reduce AR expression in human prostate cancer cells LNCaP, and the ability of the compound of the present disclosure to reduce AR expression is expressed in AR reduction percentage (%) herein. […] The AR reduction percentage (%) is calculated as follows: AR reduction percentage (%)=(AR in DHT group/GAPDH value−AR in test compound group/GAPDH value)/AR in DHT group/GAPDH value×100%.
AR is a key factor for regulating the response of prostate cancer cells to androgens. AR is also a key factor for the response of hair follicles or tissues around the hair follicles to androgens, and the reduction of the AR content not only can down-regulate the growth of the prostate cancer cells, but also can inhibit androgenetic alopecia. This test example is to test the effects of the compounds of the present disclosure on the reduction of AR protein expression in human prostate cancer cells LNCaP in the presence of DHT. The compounds of the present disclosure were analyzed for anti-AR activity in human prostate cancer cells LNCaP by measuring the reduction of AR protein using the Western blot method.
Human prostate cancer cells LNCaP were seeded in a 6-well plate at 4×10^5 cells/mL and at a volume of 2 mL per well. The plate was incubated overnight in a cell incubator. DMSO and dihydrotestosterone (DHT, 1 nM) were used as control groups. Assays were performed in the presence of dihydrotestosterone (DHT, 1 nM). After incubating with the test compounds for a specified time, the cells were collected and dissolved according to the Western blot technique known in the biochemical art. A DMSO group, a DHT group (1 nM) and test compound groups (containing 1 nM DHT) were set during the assay. DMSO and DHT (1 nM DHT) were added to 6-well plates corresponding to the DMSO group and the DHT group, respectively. […] The protein concentration was quantified using the BCA kit, and then the samples were stored for later use.
The content of the AR protein in each group was determined by using Western Blot, and the loading amount of the sample in each group was […]. Western blot analysis has been disclosed in the prior art. Specifically, the cells were collected in 2× sodium dodecyl sulfate/polyacrylamide gel electrophoresis loading buffer or in radioimmunoprecipitation assay (RIPA) buffer strengthened with 10 μg/mL benzamidine, 10 μg/mL trypsin inhibitor, and 1 mM phenylmethylsulfonyl fluoride. A sample of total protein (about 40 μg) from each cell lysate was separated by electrophoresis on an SDS/PAGE gel. After separation by electrophoresis, the proteins were transferred from the gel to a nitrocellulose membrane following the standard procedures. The membrane was then incubated with 10% non-fat milk in phosphate-buffered saline supplemented with 0.1% Tween 20 (PBST) for 1 h, followed by incubation with a primary human AR-specific antibody (purchased from BD-Harlingen) at 4° C. overnight. After incubation, the membrane was washed 3 times with PBST buffer, each for 10 mins. An alkaline phosphatase-conjugated secondary antibody was then added, and the membrane was incubated at room temperature for 1 h. After the secondary incubation, the membrane was washed again with PBST, and the AR protein signal in the membrane was visualized by adding an alkaline phosphatase medium, bromochloroindolyl phosphate, and nitrotetrazole to the membrane. To ensure that an equal amount of protein from each sample was analyzed, a portion of the membrane was kept with a specific antibody for the regulatory protein GAPDH (Santa Cruz Biotechnology), and the GAPDH signal was visualized with the secondary antibody described above. The protein signal intensity (as indicated by color bands on the membrane) was measured using a densitometer and analyzed by the NIH Image J software (NIH1.33).

[3] = Homo sapiens, 120 h, 1 nM DHT, 5 days, CTG

Structure (SMILES) | IC50 [1, 3] [nM] | IC50 ([1]; Homo sapiens, 120 h) [nM] | other results
COc1ccc(/C=C/C(=O)C2(C(=O)/C=C/c3ccc(OC)c(OC)c3)CC=C(F)CC2)cc1OC [Compound 22] | 3140 |  | 
[2H]C([2H])([2H])Oc1ccc(/C=C/C(=O)C2(C(=O)/C=C/c3ccc(OC([2H])([2H])[2H])c(OC([2H])([2H])[2H])c3)C([2H])([2H])C2([2H])[2H])cc1OC([2H])([2H])[2H] [Compound 6] |  | 2560 | 
[2H]C([2H])([2H])Oc1ccc(/C=C/C(=O)C2(C(=O)/C=C/c3ccc(OC([2H])([2H])[2H])c(OC([2H])([2H])[2H])c3)CCCC2)cc1OC([2H])([2H])[2H] [Compound 3] |  | 1750 | 
[2H]C([2H])([2H])Oc1ccc(/C=C/C(=O)C2(C(=O)/C=C/c3ccc(OC([2H])([2H])[2H])c(OC([2H])([2H])[2H])c3)CC2)cc1OC([2H])([2H])[2H] [Compound 1] |  | 1710 | 
COc1ccc(/C=C/C(=O)C2(C(=O)/C=C/c3ccc(OC)c(OC)c3)CCC(N3CCCCC3)CC2)cc1OC [Compound 19 hydrochloride] | 350 |  | anti-AR activity (in words) [2]: significant anti-AR activities; AR reduction percentage [2]: 81.4%; Relative potency (anti-AR activity) [2]: ++++++ (75 < * ≤ 100)
COc1ccc(/C=C/C(=O)C2(C(=O)/C=C/c3ccc(OC)c(OC)c3)CCC(O)CC2)cc1OC [Compound 13] | 950 |  | 
[2H]C([2H])([2H])Oc1ccc(/C=C/C(=O)C2(C(=O)/C=C/c3ccc(OC([2H])([2H])[2H])c(OC([2H])([2H])[2H])c3)CCC2)cc1OC([2H])([2H])[2H] [Compound 2] |  | 1820 | 
COc1ccc(/C=C/C(=O)C2(C(=O)/C=C/c3ccc(OC)c(OC)c3)CCC3(CC2)OCCO3)cc1OC [Compound 11] | 980 |  | 
COc1ccc(/C=C/C(=O)C2(C(=O)/C=C/c3ccc(OC)c(OC)c3)CCN(C(=O)OC(C)(C)C)CC2)cc1OC [Compound 25] |  | 1370 | 
COc1ccc(/C=C/C(=O)C2(C(=O)/C=C/c3ccc(OC)c(OC)c3)CC3(CC3)C2)cc1OC [Compound 5] |  | 5480 | 
COc1ccc(/C=C/C(=O)C2(C(=O)/C=C/c3ccc(OC)c(OC)c3)COC(=O)OC2)cc1OC [Compound 9] |  | 3310 | 
COc1ccc(/C=C/C(=O)C2(C(=O)/C=C/c3ccc(OC)c(OC)c3)CCN(S(C)(=O)=O)CC2)cc1OC [Compound 24] |  | 610 | 
COc1ccc(/C=C/C(=O)C2(C(=O)/C=C/c3ccc(OC)c(OC)c3)CCC(N3CCOCC3)CC2)cc1OC [Compound 12 hydrochloride] |  |  | IC50 ([1]; 1 nM DHT, 5 days, CTG, listed as 12 hydrochloride): 450 nM; anti-AR activity (in words) [2]: significant anti-AR activities; AR reduction percentage [2]: 86.2%; Relative potency (anti-AR activity) [2]: ++++++ (75 < * ≤ 100)
COc1ccc(/C=C/C(=O)C2(C(=O)/C=C/c3ccc(OC)c(OC)c3)CCC(N3CCC(F)(F)CC3)CC2)cc1OC [Compound 18 hydrochloride] | 610 |  | 
COc1ccc(/C=C/C(=O)C2(C(=O)/C=C/c3ccc(OC)c(OC)c3)CCC3(CC3)CC2)cc1OC [Compound 26] |  | 620 | 
COc1ccc(/C=C/C(=O)C2(C(=O)/C=C/c3ccc(OC)c(OC)c3)CCC(N3CCOCC3)CC2)cc1OC [Compound 12] |  |  | IC50 ([1]; 1 nM DHT, 5 days, CTG): 1290 nM
COc1ccc(/C=C/C(=O)C2(C(=O)/C=C/c3ccc(OC)c(OC)c3)CCC(NC3CC(F)(F)C3)CC2)cc1OC [Compound 23 hydrochloride] | 620 |  | 
CCN(CC)C1CCC(C(=O)/C=C/c2ccc(OC)c(OC)c2)(C(=O)/C=C/c2ccc(OC)c(OC)c2)CC1 [Compound 16 hydrochloride] |  | 370 | 
